# From patent US11813306B2, “Cyclic tetramer compounds as proprotein convertase subtilisin/kexin type 9 (PCSK9) inhibitors for the treatment of metabolic disorders” (NOVARTIS AG, priority 2018, dated 2023)
# Molecular target: human PCSK9 (Homo sapiens, UniProt Q8NBP7)
# Experiment: PCSK9 ligand binding assay (TR-FRET): interference with binding of human PCSK9 to human LDLR
# Conditions: for IC50: Human PCSK9 Alexa Fluor 647 / Human LDLR extracellular domain-Europium Kryptate; for Max % inhibition: efficacy (Amax), 100% = 1 uM unlabeled human PCSK9, 0% = DMSO
# Summary of the method: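 Read-out was TR-FRET ratio (665 nm over 615 nm, 330 nm excitation) between Alexa Fluor 647-human PCSK9 (16 nM added) and Europium Kryptate-human LDLR ectodomain (4 nM added). Compound and PCSK9 were mixed 30 min before LDLR, then incubated 2 h. Inhibition was normalised to DMSO and unlabelled-PCSK9 controls, giving IC50 and Amax.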
# human PCSK9, sequence (Q8NBP7 153-692): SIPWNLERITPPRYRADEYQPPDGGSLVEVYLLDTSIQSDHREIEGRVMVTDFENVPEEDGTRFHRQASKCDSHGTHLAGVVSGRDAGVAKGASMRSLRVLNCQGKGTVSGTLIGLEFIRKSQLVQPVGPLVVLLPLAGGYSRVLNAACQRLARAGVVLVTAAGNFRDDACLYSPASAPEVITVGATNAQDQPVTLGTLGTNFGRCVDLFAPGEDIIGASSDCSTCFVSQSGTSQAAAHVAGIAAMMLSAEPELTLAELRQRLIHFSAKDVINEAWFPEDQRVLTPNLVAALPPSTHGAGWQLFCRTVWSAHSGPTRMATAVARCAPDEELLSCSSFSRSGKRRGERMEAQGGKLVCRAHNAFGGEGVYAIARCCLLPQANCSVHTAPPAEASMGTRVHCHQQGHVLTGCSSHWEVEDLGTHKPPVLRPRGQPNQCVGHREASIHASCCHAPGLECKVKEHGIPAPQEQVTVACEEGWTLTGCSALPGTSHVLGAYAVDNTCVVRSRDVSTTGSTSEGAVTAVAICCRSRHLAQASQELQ
# human PCSK9, sequence (Q8NBP7 31-152 partner limits assumed): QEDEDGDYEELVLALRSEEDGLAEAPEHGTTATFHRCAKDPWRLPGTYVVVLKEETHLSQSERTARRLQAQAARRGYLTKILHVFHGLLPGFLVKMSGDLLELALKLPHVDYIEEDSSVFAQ
Compound,IC50,Max % inhibition
"C[C@H]1C(=O)N[C@@H](CO)C(=O)N[C@@]2(Cc3ccc(Cl)cc3)CCCN(C2)C(=O)[C@H]([C@@H]2CCc3ccccc32)CC(=O)N1Cc1ccc(Cl)cc1Oc1ccc(-c2cnc(CN(C)C)n2C)cc1.Cl [Compound 84, (3S, 7S, 10S, 13R)-6-(4-chloro-2-(4-(2-((dimethylamino)methyl)-1-methyl-1H-imidazol-5-yl)phenoxy)benzyl)-13-(4-chlorobenzyl)-3-((S)-2,3-dihydro-1H-inden-1-yl)-10-(hydroxymethyl)-7-methyl-1,6,9,12-tetraazabicyclo[11.3.1]heptadecane-2,5,8,11-tetraone]",1.68 nM,101.9%
COC[C@@H]1NC(=O)[C@H](C)N(Cc2ncc(Cl)cc2Oc2ccc(-c3cnc(CN(C)C)n3C)nc2)C(=O)C[C@@H](Cc2ccccc2)C(=O)N2CCC[C@@](Cc3ccc(Cl)cc3)(C2)N(C)C1=O [Compound 85],1.41 nM,101.7%
"C[C@H]1C(=O)N[C@@H](CO)C(=O)N[C@@]2(Cc3ccc(Cl)cc3)CCCN(C2)C(=O)[C@H](Cc2ccccc2)CC(=O)N1Cc1c(F)cc(Cl)cc1Oc1ccc(-c2cnc(CN(C)C)n2C)cc1F [Compound 87, (3R, 7S, 10S, 13R)-3-benzyl-6-(4-chloro-2-(4-(2-((dimethylamino)methyl)-1-methyl-1H-imidazol-5-yl)-2-fluorophenoxy)-6-fluorobenzyl)-13-(4-chlorobenzyl)-10-(hydroxymethyl)-7-methyl-1,6,9,12-tetraazabicyclo[11.3.1]heptadecane-2,5,8,11-tetraone]",0.58 nM,111.7%
"CCn1c(-c2ccc(Oc3cc(Cl)cc(F)c3CN3C(=O)C[C@@H](CC(F)(F)F)C(=O)N4CCC[C@@](Cc5ccc(Cl)cc5)(C4)NC(=O)[C@H](CO)NC(=O)[C@@H]3C)cc2)cnc1CN(C)C [Compound 88, (3S, 7S, 10S, 13R)-6-(4-chloro-2-(4-(2-((dimethylamino)methyl)-1-ethyl-1H-imidazol-5-yl)phenoxy)-6-fluorobenzyl)-13-(4-chlorobenzyl)-10-(hydroxymethyl)-7-methyl-3-(2,2,2-trifluoroethyl)-1,6,9,12-tetraazabicyclo[11.3.1]heptadecane-2,5,8,11-tetraone]",3.16 nM,99.0%
"C[C@H]1C(=O)N[C@@H](CO)C(=O)N(C)[C@H](Cc2ccc(Cl)cc2)CNC(=O)[C@H](Cc2ccccc2)CC(=O)N1Cc1ccc(Cl)cc1Oc1ccc(-c2cnc(CN3CCCC3)n2C)cc1.Cl [Compound 89, (2S, 5S, 8R, 12R)-12-benzyl-1-(4-chloro-2-(4-(1-methyl-2-(pyrrolidin-1-ylmethyl)-1H-imidazol-5-yl)phenoxy)benzyl)-8-(4-chlorobenzyl)-5-(hydroxymethyl)-2,7-dimethyl-1,4,7,10-tetraazacyclotetradecane-3,6,11,14-tetraone]",1.51 nM,104.5%
C[C@H]1C(=O)N[C@@H](CO)C(=O)N[C@@]2(Cc3ccc(Cl)cc3)CCCN(C2)C(=O)[C@H]([C@@H]2CCc3ccccc32)CC(=O)N1Cc1ccc(C(F)(F)F)cc1Oc1ccc(-c2cnc(CN(C)C)n2C)cc1 [Compound 90],1.71 nM,99.2%
"C[C@H]1C(=O)N[C@@H](CO)C(=O)N(C)[C@H](Cc2ccc(Cl)cc2)CN(C)C(=O)[C@H]([C@H]2CCc3ccccc32)CC(=O)N1Cc1ccc(Cl)cc1Oc1ccc(-c2cnc(CN(C)C)n2C)cc1.Cl [Compound 91, (2S, 5S, 8R, 12S)-1-(4-chloro-2-(4-(2-((dimethylamino)methyl)-1-methyl-1H-imidazol-5-yl)phenoxy)benzyl)-8-(4-chlorobenzyl)-12-((R)-2,3-dihydro-1H-inden-1-yl)-5-(hydroxymethyl)-2,7,10-trimethyl-1,4,7,10-tetraazacyclotetradecane-3,6,11,14-tetraone]",1.83 nM,104.8%
"COC[C@@H]1NC(=O)[C@H](C)N(Cc2ccc(Cl)cc2Oc2ccc(-c3cnc(CN4CCCC4)n3C)cc2)C(=O)C[C@@H](Cc2ccccc2)C(=O)NC[C@@H](Cc2ccc(Cl)cc2)N(C)C1=O.Cl [Compound 92, (2S, 5S, 8R, 12R)-12-benzyl-1-(4-chloro-2-(4-(1-methyl-2-(pyrrolidin-1-ylmethyl)-1H-imidazol-5-yl)phenoxy)benzyl)-8-(4-chlorobenzyl)-5-(methoxymethyl)-2,7-dimethyl-1,4,7,10-tetraazacyclotetradecane-3,6,11,14-tetraone]",2.37 nM,104.1%
"C[C@H]1C[C@H]([C@@H]2CC(=O)N(Cc3ccc(Cl)cc3Oc3ccc(-c4cnc(CN5CCCC5)n4C)cc3)[C@@H](C)C(=O)N[C@@H](CO)C(=O)N(C)[C@H](Cc3ccc(Cl)cc3)CN(C)C2=O)c2ccccc21.Cl [Compound 93, (2S, 5S, 8R, 12S)-1-(4-chloro-2-(4-(1-methyl-2-(pyrrolidin-1-ylmethyl)-1H-imidazol-5-yl)phenoxy)benzyl)-8-(4-chlorobenzyl)-5-(hydroxymethyl)-2,7,10-trimethyl-12-((1R, 3S)-3-methyl-2,3-dihydro-1H-inden-1-yl)-1,4,7,10-tetraazacyclotetradecane-3,6,11,14-tetraone]",1.4 nM,103.0%
"COC[C@@H]1NC(=O)[C@H](C)N(Cc2ccc(Cl)cc2Oc2ccc(-c3cnc(CN(C)C)n3C)nc2)C(=O)C[C@@H](Cc2ccccn2)C(=O)N2CCC[C@@](Cc3ccc(Cl)cc3)(C2)N(C)C1=O [Compound 94, (3R,7S,10S,13R)-6-(4-Chloro-2-((6-(2-((dimethylamino)methyl)-1-methyl-1H-imidazol-5-yl)pyridin-3-yl)oxy)benzyl)-13-(4-chlorobenzyl)-10-(methoxymethyl)-7,12-dimethyl-3-(pyridin-2-ylmethyl)-1,6,9,12-tetraazabicyclo[11.3.1]heptadecane-2,5,8,11-tetraone]",0.978 nM,107.7%
"COC[C@@H]1NC(=O)[C@H](C)N(Cc2ccc(Cl)cc2Oc2ccc(-c3cnc(CN(C)C)n3C)cc2)C(=O)C[C@@H]([C@@H]2CCc3ccccc32)C(=O)N2CCC[C@@](Cc3ccc(Cl)cc3)(C2)NC1=O.Cl [Compound 95, (3S, 7S, 10S, 13R)-6-(4-chloro-2-(4-(2-((dimethylamino)methyl)-1-methyl-1H-imidazol-5-yl)phenoxy)benzyl)-13-(4-chlorobenzyl)-3-((S)-2,3-dihydro-1H-inden-1-yl)-10-(methoxymethyl)-7-methyl-1,6,9,12-tetraazabicyclo[11.3.1]heptadecane-2,5,8,11-tetraone]",1.88 nM,102.5%
"C[C@@H](O)[C@@H]1NC(=O)[C@H](C)N(Cc2ccc(Cl)cc2Oc2ccc(-c3cnc(CN(C)C)n3C)cc2)C(=O)C[C@@H](CC(F)(F)F)C(=O)N2CCC[C@@](Cc3ccc(Cl)cc3)(C2)NC1=O [Compound 97, (3S, 7S, 10S, 13R)-6-(4-chloro-2-(4-(2-((dimethylamino)methyl)-1-methyl-1H-imidazol-5-yl)phenoxy)benzyl)-13-(4-chlorobenzyl)-10-((R)-1-hydroxyethyl)-7-methyl-3-(2,2,2-trifluoroethyl)-1,6,9,12-tetraazabicyclo[11.3.1]heptadecane-2,5,8,1-tetraone]",2.08 nM,91.2%
"C[C@H]1C(=O)N[C@@H](CO)C(=O)N[C@@]2(Cc3ccc(Cl)cc3)CCCN(C2)C(=O)[C@H](Cc2ccccc2)CC(=O)N1Cc1c(Cl)cc(Cl)cc1Oc1ccc(-c2cnc(CN(C)C)n2C)cc1 [Compound 98, (3R, 7S, 10S, 13R)-3-benzyl-13-(4-chlorobenzyl)-6-(2,4-dichloro-6-(4-(2-((dimethylamino)methyl)-1-methyl-1H-imidazol-5-yl)phenoxy)benzyl)-10-(hydroxymethyl)-7-methyl-1,6,9,12-tetraazabicyclo+11.3.111-tetraone]",2.41 nM,108.6%
"C[C@@H]1CC(=O)N(Cc2c(F)cc(Cl)cc2Oc2ccc(-c3cnc(CN(C)C)n3C)cc2)[C@@H](C)C(=O)N[C@@H](CO)C(=O)N(C)[C@@]2(Cc3ccc(Cl)cc3)CCCN(C2)C1=O [Compound 99, (3R, 7S, 10S, 13R)-6-(4-chloro-2-(4-(2-((dimethylamino)methyl)-1-methyl-1H-imidazol-5-yl)phenoxy)-6-fluorobenzyl)-13-(4-chlorobenzyl)-10-(hydroxymethyl)-3,7,12-trimethyl-1,6,9,12-tetraazabicyclo+11.3.1+heptadecane-2,5,8,11-tetraone]",2.86 nM,116.6%
"COC[C@@H]1NC(=O)[C@H](C)N(Cc2ccc(Cl)cc2Oc2ccc(-c3cnc(CN4CCCC4)n3C)cc2)C(=O)C[C@@H]([C@H]2CCc3ccccc32)C(=O)N(C)C[C@@H](Cc2ccc(Cl)cc2)N(C)C1=O.Cl [Compound 101, (2S, 5S, 8R, 12S)-1-(4-chloro-2-(4-(1-methyl-2-(pyrrolidin-1-ylmethyl)-1H-imidazol-5-yl)phenoxy)benzyl)-8-(4-chlorobenzyl)-12-((R)-2,3-dihydro-1H-inden-1-yl)-5-(methoxymethyl)-2,7,10-trimethyl-1,4,7,10-tetraazacyclotetradecane-3,6,11,14-tetraone]",1.94 nM,98.3%
"C[C@H]1C(=O)N[C@@H](CO)C(=O)N(C)[C@H](Cc2ccc(Cl)cc2)CN(C)C(=O)[C@H]([C@H]2COc3ccccc32)CC(=O)N1Cc1ccc(Cl)cc1Oc1ccc(-c2cnc(CN3CCCC3)n2C)cc1.Cl [Compound 102, (2S, 5S, 8R, 12S)-1-(4-chloro-2-(4-(1-methyl-2-(pyrrolidin-1-ylmethyl)-1H-imidazol-5-yl)phenoxy)benzyl)-8-(4-chlorobenzyl)-12-((R)-2,3-dihydrobenzofuran-3-yl)-5-(hydroxymethyl)-2,7,10-trimethyl-1,4,7,10-tetraazacyclotetradecane-3,6,11,14-tetraone]",1.38 nM,100.8%
